# Measurements taken from publication PMC11090211 (Chemico-biological interactions, 2024).
# Like-named read-outs stand apart in the source and are kept apart here.
# Experiments:
# [1] = target: T1, H44R/H48Q yeast ADH (Saccharomyces cerevisiae, UniProt P00330, H45R/H49Q); assay type: biochemical
# [2] = target: H44R/H48Q yeast alcohol dehydrogenase (Saccharomyces cerevisiae, UniProt P00330, H45R/H49Q)
# [3] = test system: wild-type yeast alcohol dehydrogenase; conditions: cited from earlier work
# [4] = target: T2, wild-type yeast ADH (Saccharomyces cerevisiae, UniProt P00330); conditions: cited from earlier work
# T2 sequence (P00330 1-348): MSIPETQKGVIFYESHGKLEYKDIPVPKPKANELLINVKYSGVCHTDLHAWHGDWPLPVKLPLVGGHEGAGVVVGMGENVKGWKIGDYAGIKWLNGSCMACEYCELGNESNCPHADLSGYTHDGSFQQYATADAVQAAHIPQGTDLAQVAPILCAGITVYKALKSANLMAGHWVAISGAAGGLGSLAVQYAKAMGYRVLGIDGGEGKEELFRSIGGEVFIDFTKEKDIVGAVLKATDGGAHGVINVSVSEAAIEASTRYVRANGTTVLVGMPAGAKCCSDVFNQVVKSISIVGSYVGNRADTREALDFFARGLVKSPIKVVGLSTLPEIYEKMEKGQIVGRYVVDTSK
# [5] = test system: H44R yeast alcohol dehydrogenase; conditions: pH 7.3, 30 °C, cited from earlier work
# [6] = test system: H48Q yeast alcohol dehydrogenase; conditions: pH 7.3, 30 °C, cited from earlier work
# [7] = target: T2, wild-type yeast ADH; experiment: Inactivation by diethyl pyrocarbonate; assay type: biochemical; conditions: pH 8.0, 30 °C
# [8] = target: T3, H44R yeast ADH (Saccharomyces cerevisiae, UniProt P00330, H45R); experiment: Inactivation by diethyl pyrocarbonate; assay type: biochemical; conditions: pH 8.0, 30 °C
# [9] = target: T4, H48Q yeast ADH (Saccharomyces cerevisiae, UniProt P00330, H49Q); experiment: Inactivation by diethyl pyrocarbonate; assay type: biochemical; conditions: pH 8.0, 30 °C
# [10] = target: T1, H44R/H48Q yeast ADH; experiment: Inactivation by diethyl pyrocarbonate; assay type: biochemical; conditions: pH 8.0, 30 °C
# [11] = target: T2, wild-type yeast ADH; conditions: cited from earlier work; remark: listed apart in the source
# [12] = target: T1, H44R/H48Q yeast ADH; assay type: biochemical; conditions: for VD1, isotope effect for oxidation of ethanol: 550 mM ethanol, 2 mM NAD^+, single concentration, duplicate
# [13] = target: T2, wild-type yeast ADH; conditions: ethanol or ethanol-d5 15–200 mM, 10 mM NAD^+, 30 °C, ref 6 and 9, cited from earlier work
# [14] = target: T3, H44R yeast ADH; conditions: ethanol or ethanol-d5 15–200 mM, 10 mM NAD^+, 30 °C, ref 6 and 9, cited from earlier work
# [15] = target: T4, H48Q yeast ADH; conditions: ethanol or ethanol-d5 15–200 mM, 10 mM NAD^+, 30 °C, ref 6 and 9, cited from earlier work
# [16] = pH 7.3, 30 °C, 83 mM potassium phosphate, 40 mM KCl
# [17] = 83 mM potassium phosphate, 40 mM KCl
# [18] = read-out: Kia, inhibition (dissociation) constant for NAD^+, 83 mM potassium phosphate, 40 mM KCl
# [19] = 90 μM diethyl pyrocarbonate, 33 mM sodium phosphate buffer
# [20] = after 90 μM diethyl pyrocarbonate
# [21] = read-out: Kiq, inhibition (dissociation) constant for NADH, pH 7.3, 30 °C, 83 mM potassium phosphate, 40 mM KCl
# [22] = read-out: Kiq, inhibition (dissociation) constant for NADH, 83 mM potassium phosphate, 40 mM KCl
# T4 sequence (P00330 2-348 H49Q): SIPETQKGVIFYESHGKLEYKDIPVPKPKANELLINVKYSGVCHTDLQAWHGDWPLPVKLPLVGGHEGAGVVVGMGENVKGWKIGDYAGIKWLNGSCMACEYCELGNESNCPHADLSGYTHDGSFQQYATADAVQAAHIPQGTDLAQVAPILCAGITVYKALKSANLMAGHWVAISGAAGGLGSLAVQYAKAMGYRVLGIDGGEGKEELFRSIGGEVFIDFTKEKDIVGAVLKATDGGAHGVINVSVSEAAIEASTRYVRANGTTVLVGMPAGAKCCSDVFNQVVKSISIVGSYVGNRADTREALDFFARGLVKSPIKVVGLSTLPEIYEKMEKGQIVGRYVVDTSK
# T1 sequence (P00330 2-348 H45R/H49Q): as the sequence (P00330 2-348 H49Q) above, with H44R counted along it
# H44R/H48Q yeast alcohol dehydrogenase, sequence (P00330 2-348 H45R/H49Q): as the sequence (P00330 2-348 H49Q) above, with H44R counted along it
# T3 sequence (P00330 2-348 H45R): as the sequence (P00330 2-348 H49Q) above, with H44R, Q48H counted along it
smiles,measurement,setting,value
N=C([O-])c1ccc[n+]([C@@H]2O[C@H](COP(=O)(O)OP(=O)([O-])OC[C@H]3O[C@@H](n4cnc5c(N)ncnc54)[C@H](O)[C@@H]3O)[C@@H](O)[C@H]2O)c1.[Li+] [NAD^+],pK of pH dependence of Kia,[1],~pH independent
same,pK of pH dependence of V1/EtKa,[1],8.03 ± 0.04
same,Ki,"[1]; read-out: Kia, at pH 7",160 µM
same,"Ka, Michaelis constant for NAD^+",[2]; [16],320 µM
same,"Ka, Michaelis constant for NAD^+",[3]; [16],160 µM
same,Ki,"[3]; read-out: Kia, inhibition (dissociation) constant for NAD^+, pH 7.3, 30 °C, 83 mM potassium phosphate, 40 mM KCl",950 µM
same,"Kia, limiting value ka",[4]; EH form,0.54 ± 0.06 mM
same,V1/EtKa,[4]; at pH 7,1570 (at pH 7) mM^−1s^−1
same,pK of pH dependence of Kia,[4],8.1 ± 0.2
same,slope of pH dependence of V1/EtKa,[4],−0.11 ± 0.02
same,"Ka, Michaelis constant for NAD^+",[5]; [17],150 µM
same,Ki,[5]; [18],260 µM
same,"Ka, Michaelis constant for NAD^+",[6]; [17],100 µM
same,Ki,[6]; [18],410 µM
CCOC(=O)OC(=O)OCC [diethyl pyrocarbonate],Inactivation constant,[7]; [19],180 M⁻¹ s⁻¹
same,Residual activity (% of initial),[7]; [20],3.1 % of initial
same,Inactivation constant,[8]; [19],31 M⁻¹ s⁻¹
same,Residual activity (% of initial),[8]; [20],30 % of initial
same,Inactivation constant,[9]; [19],25 M⁻¹ s⁻¹
same,Residual activity (% of initial),[9]; [20],55 % of initial
same,Inactivation constant,"[10]; 120 μM diethyl pyrocarbonate, 33 mM sodium phosphate buffer",11 M⁻¹ s⁻¹
same,Residual activity (% of initial),[10]; after 120 μM diethyl pyrocarbonate,64 % of initial
same,pK of the rate of inactivation by diethyl pyrocarbonate,[11]; enzyme-NADH complex,8.7
same,pK value of the rate of inactivation by diethyl pyrocarbonate,[11]; free enzyme,7.1
CC=O [acetaldehyde],"isotope effect (for VD2/Kp), acetaldehyde reduction","[12]; 1 mM acetaldehyde with 0.15 mM NADH, over the pH range",~ 2
same,pK of pH dependence of V2/Et,[1],9.6 ± 0.1
same,"V2/Et, limiting value ka",[1]; EH form,ka 850 ± 60 s^−1
same,"V1/EtKp, limiting value ka","[1]; EH form, NADH and acetaldehyde",ka 32 ± 3 mM^−1s^−1
same,pK of pH dependence of V1/EtKp,[1]; NADH and acetaldehyde,9.5 ± 0.1
same,"Kp, Michaelis constant for acetaldehyde",[2]; [16],22 mM
same,"V2/Et, turnover number for acetaldehyde reduction",[2]; [16],1040 s⁻¹
same,"V2/Etkp, catalytic efficiency for acetaldehyde reduction",[2]; [16],47 mM⁻¹ s⁻¹
same,V2/EtkpKiq,"[3]; NADH and acetaldehyde, pH 7.3, 30 °C",77000 mM^−2 s^−1
same,"Kp, Michaelis constant for acetaldehyde",[3]; [16],0.74 mM
same,"V2/Et, turnover number for acetaldehyde reduction",[3]; [16],1800 s⁻¹
same,Ki,"[3]; read-out: Kip, intercept inhibition constant, product inhibition studies, pH 7.3, 30 °C",1500 µM
same,"V1/EtKp, limiting value ka","[4]; EH form, NADH and acetaldehyde",ka 3200 ± 200 mM^−1s^−1
same,"V2/Et, limiting value ka",[4]; EH form,3600 ± 300 s⁻¹
same,pK of pH dependence of V1/EtKp,[4]; NADH and acetaldehyde,7.7 ± 0.1
same,pK of pH dependence of V2/Et,[4],7.8 ± 0.2
same,V2/EtkpKiq,[5]; NADH and acetaldehyde,6100 mM^−2 s^−1
same,"Kp, Michaelis constant for acetaldehyde",[5]; [17],4.7 mM
same,"V2/Et, turnover number for acetaldehyde reduction",[5]; [17],460 s⁻¹
same,"V2/Etkp, catalytic efficiency for acetaldehyde reduction",[5]; [17],98 mM⁻¹ s⁻¹
same,V2/EtkpKiq,[6]; NADH and acetaldehyde,19000 mM^−2 s^−1
same,"Kp, Michaelis constant for acetaldehyde",[6]; [17],12 mM
same,"V2/Et, turnover number for acetaldehyde reduction",[6]; [17],3000 s⁻¹
same,"V2/Etkp, catalytic efficiency for acetaldehyde reduction",[6]; [17],250 mM⁻¹ s⁻¹
CCO [ethanol],"VD1, isotope effect for oxidation of ethanol",[12]; pH 6 (MES),2.8
same,"VD1, isotope effect for oxidation of ethanol",[12]; pH 7 (MOPS),4.2
same,"VD1, isotope effect for oxidation of ethanol",[12]; pH 8 (TAPS),2.9
same,"VD1, isotope effect for oxidation of ethanol",[12]; pH 9 (TAPS),2.3
same,"VD1, isotope effect for oxidation of ethanol",[12]; pH 10 (CAPSO),1.8
same,pK of pH dependence of V1/EtKb,[1],8.5 ± 0.1
same,pK1 of pH dependence of V1/Et,"[1]; deprotonation of H2E, NAD^+ and ethanol",7.0 ± 0.2
same,pK2 of pH dependence of V1/Et,"[1]; deprotonation of HE, NAD^+ and ethanol",9.2 ± 0.3
same,"V1/Et, turnover number for ethanol oxidation",[2]; [16],24 s⁻¹
same,"KbKia/Ka, slope inhibition constant","[2]; product inhibition studies, pH 7.3, 30 °C",36 mM
same,"V1/Et, turnover number for ethanol oxidation",[3]; [16],360 s⁻¹
same,"VD1, isotope effect for oxidation of ethanol",[13]; pH 6,2.0
same,"VD1, isotope effect for oxidation of ethanol",[13]; pH 7,1.8
same,"VD1, isotope effect for oxidation of ethanol",[13]; pH 8,1.8
same,"VD1, isotope effect for oxidation of ethanol",[13]; pH 9,1.4
same,"VD1, isotope effect for oxidation of ethanol",[13]; pH 10,1.3
same,"V1/EtKb, limiting value ka",[4]; EH form,3500 ± 900 M⁻¹ s⁻¹
same,pK of pH dependence of V1/Et,[4],7.3 ± 0.1
same,pK of pH dependence of V1/EtKb,[4],7.8 ± 0.2
same,"V1/Et, turnover number for ethanol oxidation",[5]; [17],60 s⁻¹
same,"V1/Et, turnover number for ethanol oxidation",[6]; [17],30 s⁻¹
same,"VD1, isotope effect for oxidation of ethanol",[14]; pH 6,3.5
same,"VD1, isotope effect for oxidation of ethanol",[14]; pH 7,1.7
same,"VD1, isotope effect for oxidation of ethanol",[14]; pH 8,1.2
same,"VD1, isotope effect for oxidation of ethanol",[14]; pH 9,1.1
same,"VD1, isotope effect for oxidation of ethanol",[14]; pH 10,1.1
same,"VD1, isotope effect for oxidation of ethanol",[15]; pH 6,3.9
same,"VD1, isotope effect for oxidation of ethanol",[15]; pH 7,4.2
same,"VD1, isotope effect for oxidation of ethanol",[15]; pH 8,3.3
same,"VD1, isotope effect for oxidation of ethanol",[15]; pH 9,2.9
same,"VD1, isotope effect for oxidation of ethanol",[15]; pH 10,2.3
NC(=O)C1=CN([C@@H]2O[C@H](COP(=O)([O-])OP(=O)([O-])OC[C@H]3O[C@@H](n4cnc5c(N)ncnc54)[C@H](O)[C@@H]3O)[C@@H](O)[C@H]2O)C=CC1.[Na+].[Na+] [NADH],pK of pH dependence of Kiq,[1],8.9 ± 0.2
same,pK of pH dependence of V2/Etkq,[1],8.8 ± 0.1
same,"Kiq, limiting value ka",[1]; EH form,ka 7.9 ± 1.4 μM
same,"V2/Etkq, limiting value ka",[1]; EH form,ka 16 ± 2 μM^−1s^−1
same,"rate constant for dissociation, calculated from V2Kiq/EtKq",[1]; essentially pH independent,120 s⁻¹
same,"Kq, Michaelis constant for NADH",[2]; [16],42 pM
same,Ki,[2]; [21],3.5 µM
same,"Kq, Michaelis constant for NADH",[3]; [16],94 pM
same,Ki,[3]; [21],31 µM
same,"Kiq, limiting value ka",[4]; EH form,15 ± 2 µM
same,"V2/Etkq, limiting value",[4],32 ± 3 µM⁻¹ s⁻¹
same,pK of pH dependence of Kiq,[4],7.4 ± 0.2
same,pK of pH dependence of V2/Etkq,[4],7.8 ± 0.2
same,"Kq, Michaelis constant for NADH",[5]; [17],10 pM
same,Ki,[5]; [22],16 µM
same,"Kq, Michaelis constant for NADH",[6]; [17],110 pM
same,Ki,[6]; [22],13 µM
CCCCO [1-butanol],"average isotope effect, butanol oxidation","[12]; 5 mM 1-butanol or 1-butanol-d9, 2 mM NAD^+, pH range from 6.5 to 10.5",4.2
same,"Catalytic efficiency with butanol, fold lower than with ethanol",[2],about 20 fold
same,Km,[2]; 1-butanol,~30 mM
same,"Catalytic efficiency with butanol, fold lower than with ethanol",[3],about 20 fold
